According to patent US11066414B2, “Cot modulators and methods of use thereof” (Gilead Sciences, Inc., priority 2015, dated 2021):
Read-outs that look alike come from different tables or passages of the source.

Columns and labels:
[1] = test system: TNFα; experiment: Cot Monocyte TNFα Cell Based Assay; details: Homo sapiens, Monocyte
[2] = target: Human Cot (Homo sapiens (Human), UniProt P41279); experiment: High Throughput Cot Biochemical Assay; details: IC50 HTRF
[3] = read-out: EC50 TNF, LPS-stimulated human monocytes, TNFα
[4] = Cot HTRF (TR-FRET) biochemical assay
[5] = read-out: EC50 TNF, LPS-stimulated human monocytes, TNFα TR-FRET
[6] = Cot HTRF (TR-FRET KinEASE) biochemical assay, 400 μM ATP

Human Cot, sequence (P41279 30-397): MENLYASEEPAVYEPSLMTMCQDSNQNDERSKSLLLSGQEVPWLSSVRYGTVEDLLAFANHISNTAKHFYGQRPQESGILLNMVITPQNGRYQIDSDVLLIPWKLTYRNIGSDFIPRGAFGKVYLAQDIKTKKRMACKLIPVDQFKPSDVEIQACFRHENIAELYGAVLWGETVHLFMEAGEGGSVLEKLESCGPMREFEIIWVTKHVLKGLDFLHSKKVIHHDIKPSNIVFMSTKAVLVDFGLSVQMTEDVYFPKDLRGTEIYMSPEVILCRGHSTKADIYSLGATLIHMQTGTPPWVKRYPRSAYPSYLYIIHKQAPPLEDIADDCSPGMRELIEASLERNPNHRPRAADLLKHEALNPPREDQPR

Structure (SMILES)	EC50 [1, 3]	IC50 [2, 4]	EC50 [1, 5]	IC50 [2, 6]
CC[C@@H](Nc1c(C#N)cnc2c(C#N)cc(N[C@H](c3cn(C4(C(F)(F)F)CC4)nn3)c3cccc4ncsc34)cc12)c1ccccc1 [Example 412, 6-(((S)-benzo[d]thiazol-7-yl(1-(1-(trifluoromethyl)-cyclopropyl)-1H-1,2,3-triazol-4-yl)methyl)amino)-4-(((R)-1-phenylpropyl)amino)quinoline-3,8-dicarbonitrile]	157 nM	7 nM	–	–
Cc1nc(F)ccc1[C@H](Nc1cc(Cl)c2ncc(C#N)c(NCC(C)(C)C)c2c1)c1nnn(C2(C(F)F)CC2)c1I [Example 945, (S)-8-chloro-6-(((1-(1-(difluoromethyl)cyclopropyl)-5-iodo-1H-1,2,3-triazol-4-yl)(6-fluoro-2-methylpyridin-3-yl)methyl)amino)-4-(neopentylamino)quinoline-3-carbonitrile]	–	–	142 nM	17 nM
CC(C)(C)CNc1c(C#N)cnc2c(Cl)cc(N[C@H](c3cn(C4(C(F)(F)F)CC4)nn3)c3cccc4c(=O)n(CC(F)F)ccc34)cc12 [Example 770, (S)-8-chloro-6-(((2-(2,2-difluoroethyl)-1-oxo-1,2-dihydroisoquinolin-5-yl)(1-(1-(trifluoromethyl)cyclopropyl)-1H-1,2,3-triazol-4-yl)methyl)amino)-4-(neopentylamino)quinoline-3-carbonitrile]	108 nM	4 nM	–	–
N#Cc1cnc2c(Cl)cc(N[C@H](c3c[nH]nn3)c3cccc4c3CNC4)cc2c1Nc1ccc(F)c(Cl)c1 [Example 56, (S)-8-chloro-4-((3-chloro-4-fluorophenyl)amino)-6-((isoindolin-4-yl(1H-1,2,3-triazol-4-yl)methyl)amino)quinoline-3-carbonitrile]	2520 nM	6 nM	–	–
Cc1nc(F)ccc1[C@H](Nc1cc(Cl)c2ncc(C#N)c(N[C@@H]3CCOC3(C)C)c2c1)c1cn(C2(C(F)F)CC2)nn1 [Example 515, 8-chloro-6-(((S)-(1-(1-(difluoromethyl)-cyclopropyl)-1H-1,2,3-triazol-4-yl)(6-fluoro-2-methylpyridin-3-yl)methyl)amino)-4-(((R)-2,2-dimethyltetrahydro-furan-3-yl)amino)quinoline-3-carbonitrile]	1000 nM	199 nM	–	–
CCN1CCC(n2cc([C@@H](Nc3cc(Cl)c4ncc(C#N)c(Nc5ccc(F)c(Cl)c5)c4c3)c3sccc3Cl)nn2)CC1 [Example 389, (R)-8-chloro-4-((3-chloro-4-fluoro-phenyl)amino)-6-(((3-chlorothiophen-2-yl)(1-(1-ethylpiperidin-4-yl)-1H-1,2,3-triazol-4-yl)methyl)amino)-quinoline-3-carbonitrile]	328 nM	11 nM	–	–
CC(C)n1cc([C@@H](Nc2cc(Cl)c3ncc(C#N)c(Nc4ccc(F)c(Cl)c4)c3c2)c2cccnc2Cl)nn1 [Example 297, (S)-8-chloro-4-((3-chloro-4-fluoro-phenyl)amino)-6-(((2-chloropyridin-3-yl)(1-isopropyl-1H-1,2,3-triazol-4-yl)methyl)amino)quinoline-3-carbonitrile]	200 nM	9 nM	–	–
Cn1ccc2c([C@H](Nc3cc(C#N)c4ncc(C#N)c(NCC(C)(C)C)c4c3)c3cn(C4(C)CC4)nn3)cccc2c1=O [Example 879, (S)-6-(((2-methyl-1-oxo-1,2-dihydroisoquinolin-5-yl)(1-(1-methylcyclopropyl)-1H-1,2,3-triazol-4-yl)methyl)amino)-4-(neopentylamino)quinoline-3,8-dicarbonitrile]	–	–	13 nM	1 nM
COC[C@H](Nc1c(C#N)cnc2c(Cl)cc(N[C@@H](c3cccnc3)c3cn(C(C)C)nn3)cc12)c1ccccc1 [Example 204, 8-chloro-6-(((S)-(1-isopropyl-1H-1,2,3-triazol-4-yl)(pyridin-3-yl)methyl)amino)-4-(((R)-2-methoxy-1-phenylethyl)amino)quinoline-3-carbonitrile]	> 10000 nM	8510 nM	–	–
Cc1nc(F)ccc1[C@H](Nc1cc(Cl)c2ncc(C#N)c(NCC(C)(C)C)c2c1)c1cn(C2(C(C)C)CC2)nn1 [Example 757, (S)-8-chloro-6-(((6-fluoro-2-methylpyridin-3-yl)(1-(1-isopropylcyclopropyl)-1H-1,2,3-triazol-4-yl)methyl)amino)-4-(neopentylamino)quinoline-3-carbonitrile]	60 nM	5 nM	–	–
N#Cc1cnc2c(Cl)cc(N[C@@H](c3ccc(F)nc3)c3c[nH]nn3)cc2c1Nc1cnc(F)c(F)c1 [Example 166, (S)-8-chloro-4-((5,6-difluoropyridin-3-yl)amino)-6-(((6-fluoropyridin-3-yl)(1H-1,2,3-triazol-4-yl)methyl)amino)quinoline-3-carbonitrile]	1420 nM	6 nM	–	–
CC(C)(C)CNc1c(C#N)cnc2c(Cl)cc(N[C@H](c3cn(C4(C(N)=O)CCC4)nn3)c3cccc4ncccc34)cc12 [Example 566, (S)-1-(4-(((8-chloro-3-cyano-4-(neopentyl-amino)quinolin-6-yl)amino)(quinolin-5-yl)methyl)-1H-1,2,3-triazol-1-yl)cyclobutane-1-carboxamide]	190 nM	2 nM	–	–
Cc1nc(F)ccc1[C@H](Nc1cc(Cl)c2ncc(C#N)c(NCC(C)(C)C)c2c1)c1nnn(C)c1F [Example 963, (S)-8-chloro-6-(((5-fluoro-1-methyl-1H-1,2,3-triazol-4-yl)(6-fluoro-2-methylpyridin-3-yl)methyl)amino)-4-(neopentylamino)quinoline-3-carbonitrile]	–	–	51 nM	4 nM
Cn1cnc2cccc([C@H](Nc3cc(Cl)c4ncc(C#N)c(NCC(C)(C)C)c4c3)c3cn(C4CC4)nn3)c21 [Example 459, (S)-8-chloro-6-(((1-cyclopropyl-1H-1,2,3-triazol-4-yl)(1-methyl-1H-benzo[d]imidazol-7-yl)methyl)amino)-4-(neopentylamino)quinoline-3-carbonitrile]	50 nM	3 nM	–	–
COc1cc(N[C@H](c2cn(C3(C(F)(F)F)CC3)nn2)c2ccc(F)nc2C)cc2c(NCC(C)(C)C)c(C#N)cnc12 [Example 595, (S)-6-(((6-fluoro-2-methylpyridin-3-yl)(1-(1-(trifluoromethyl)cyclopropyl)-1H-1,2,3-triazol-4-yl)methyl)amino)-8-methoxy-4-(neopentylamino)quinoline-3-carbonitrile]	1000 nM	209 nM	–	–
CC(C)(C)CNc1c(C#N)cnc2c(Cl)cc(N[C@H](c3cn(C4CC4)nn3)c3cccc4ccncc34)cc12 [Example 504, (S)-8-chloro-6-(((1-cyclopropyl-1H-1,2,3-triazol-4-yl)(isoquinolin-8-yl)methyl)amino)-4-(neopentylamino)quinoline-3-carbonitrile]	38 nM	1 nM	–	–
CC(C)(C)n1cc([C@@H](Nc2cc(Cl)c3ncc(C#N)c(Nc4cnc(F)c(F)c4)c3c2)c2cccnc2)nn1 [Example 198, (S)-6-(((1-(tert-butyl)-1H-1,2,3-triazol-4-yl)(pyridin-3-yl)methyl)amino)-8-chloro-4-((5,6-difluoropyridin-3-yl)amino)quinoline-3-carbonitrile]	982 nM	17 nM	–	–
